How the values were obtained:
[1] = test system: DIPGX29 (H3.3 K27M diffuse intrinsic pontine glioma line); experiment: maximal growth inhibition (yFin) relative to DMSO / staurosporine; higher = more efficacious
Method in brief: (§1)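 Patient-derived pHGG/DIPG cell lines and astrocyte controls were plated in 384-well plates coated with 1% Geltrex and dosed by pin tool with a 10-point threefold dilution series (mean top concentration 35 μM), in triplicate. Cells were exposed for 7 days (3 days for iAstro) at 37 °C and 5% CO2. CellTiter-Glo luminescence was log2-transformed, normalised per plate to % activity between negative (solvent) and positive control wells, and pooled. EC50 and maximal response (yFin) were taken from whichever three- or four-parameter log-logistic fit had the lowest AICc.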

[2] = test system: DIPGX37 (H3.3 K27M diffuse intrinsic pontine glioma line); experiment: as above
Method in brief: as §1

[3] = test system: DIPGX7 (H3.3 K27M diffuse intrinsic pontine glioma line); experiment: as above
Method in brief: as §1

[4] = test system: DIPGX9 (diffuse intrinsic pontine glioma line); experiment: as above
Method in brief: as §1

[5] = test system: HGGX2 (paediatric high-grade glioma line); experiment: as above
Method in brief: as §1

[6] = test system: HGGX39 (paediatric high-grade glioma line); experiment: as above
Method in brief: as §1

[7] = test system: HGGX42 (H3.3 G34R paediatric high-grade glioma line); experiment: as above
Method in brief: as §1

[8] = test system: SUDIPGIV (diffuse intrinsic pontine glioma line); experiment: as above
Method in brief: as §1

[9] = test system: SUDIPGVI (diffuse intrinsic pontine glioma line); experiment: as above
Method in brief: as §1

[10] = test system: SUDIPGXIII (diffuse intrinsic pontine glioma line); experiment: as above
Method in brief: as §1

[11] = test system: SUDIPGXIX (diffuse intrinsic pontine glioma line); experiment: as above
Method in brief: as §1

[12] = test system: SUDIPGXXI (diffuse intrinsic pontine glioma line); experiment: as above
Method in brief: as §1

[13] = test system: iAstro (astrocyte control); experiment: as above
Method in brief: as §1

[14] = test system: DIPGX29; experiment: area under dose-response curve of % growth inhibition (log2 RLU vs DMSO / staurosporine), 1e-11 to 1e-4 M (% x log10 M); higher = more growth inhibition
Method in brief: (§2)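 Patient-derived pHGG/DIPG cell lines and astrocyte controls were grown on 1% Geltrex-coated 384-well plates and exposed to a 10-point threefold dilution series (mean top concentration 35 μM), in triplicate. Exposure was 7 days (iAstro 3 days) at 37 °C, 5% CO2. CellTiter-Glo luminescence was log2-transformed and normalised per plate to % activity between solvent and positive controls. Area under the curve was taken by trapezoid rule from the fitted log-logistic curve, or from a smoothing spline when the sigmoid fit failed.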

[15] = test system: DIPGX37; experiment: as above
Method in brief: as §2

[16] = test system: DIPGX7; experiment: as above
Method in brief: as §2

[17] = test system: DIPGX9; experiment: as above
Method in brief: as §2

[18] = test system: HABS (astrocyte control); experiment: as above
Method in brief: as §2

[19] = test system: HGGX2; experiment: as above
Method in brief: as §2

[20] = test system: HGGX39; experiment: as above
Method in brief: as §2

[21] = test system: HGGX42; experiment: as above
Method in brief: as §2

[22] = test system: HGGX6 (H3.3 G34R paediatric high-grade glioma line); experiment: as above
Method in brief: as §2

[23] = test system: SUDIPGIV; experiment: as above
Method in brief: as §2

[24] = test system: SUDIPGVI; experiment: as above
Method in brief: as §2

[25] = test system: SUDIPGXIII; experiment: as above
Method in brief: as §2

[26] = test system: SUDIPGXIX; experiment: as above
Method in brief: as §2

[27] = test system: SUDIPGXVII (diffuse intrinsic pontine glioma line); experiment: as above
Method in brief: as §2

[28] = test system: SUDIPGXXI; experiment: as above
Method in brief: as §2

[29] = test system: iAstro; experiment: as above
Method in brief: as §2

| SMILES | maximal growth inhibition [1] [%] | maximal growth inhibition [2] [%] | maximal growth inhibition [3] [%] | maximal growth inhibition [4] [%] | maximal growth inhibition [5] [%] | maximal growth inhibition [6] [%] | maximal growth inhibition [7] [%] | maximal growth inhibition [8] [%] | maximal growth inhibition [9] [%] | maximal growth inhibition [10] [%] | maximal growth inhibition [11] [%] | maximal growth inhibition [12] [%] | maximal growth inhibition [13] [%] | area under dose-response curve [14] | area under dose-response curve [15] | area under dose-response curve [16] | area under dose-response curve [17] | area under dose-response curve [18] | area under dose-response curve [19] | area under dose-response curve [20] | area under dose-response curve [21] | area under dose-response curve [22] | area under dose-response curve [23] | area under dose-response curve [24] | area under dose-response curve [25] | area under dose-response curve [26] | area under dose-response curve [27] | area under dose-response curve [28] | area under dose-response curve [29] |
| --- | --- | --- | --- | --- | --- | --- | --- | --- | --- | --- | --- | --- | --- | --- | --- | --- | --- | --- | --- | --- | --- | --- | --- | --- | --- | --- | --- | --- | --- |
| CN(C)C/C=C/C(=O)Nc1cc2c(Nc3ccc(F)c(Cl)c3)ncnc2cc1O[C@H]1CCOC1 [AFATINIB] | 91.2 | 95.5 | 110 | 118 | 109 | 93.2 | 108 | 111 | 111 | 92.1 | 120 | 120 | 92.5 | 110 | 116 | 108 | 144 | 102 | 115 | 99.2 | 108 | 86.1 | 90.9 | 130 | 85.6 | 123 | 87.7 | 168 | 80.2 |
| O=C(Nc1c[nH]nc1-c1nc2ccc(CN3CCOCC3)cc2[nH]1)NC1CC1 [AT9283] | 108 | 107 | 110 | 109 | 96.7 | 91.6 | 104 | 99.7 | 101 | 97.8 | 112 | 114 | 27.5 | 150 | 132 | 143 | 203 | 173 | 87.8 | 186 | 178 | 134 | 167 | 97.6 | 77.4 | 184 | 128 | 310 | 42.3 |
| CC(=O)OC[C@H]1O[C@@H]([S-])[C@H](OC(C)=O)[C@@H](OC(C)=O)[C@@H]1OC(C)=O.CCP(CC)CC.[Au+] [AURANOFIN] | 93.1 | 90.9 | 119 | 118 | 110 | 107 | 116 | 117 | 114 | 113 | 118 | 122 | 106 | 232 | 219 | 228 | 209 | 146 | 248 | 165 | 243 | 218 | 198 | 202 | 168 | 219 | 169 | 323 | 196 |
| COC(=O)[C@]12CCC(C)(C)C[C@H]1[C@H]1C(=O)C=C3[C@@]4(C)C=C(C#N)C(=O)C(C)(C)[C@@H]4CC[C@@]3(C)[C@]1(C)CC2 [BARDOXOLONE METHYL] | 87.1 | 88.6 | 112 | 107 | 104 | 92.1 | 111 | 122 | 96.1 | 97 | 124 | 103 | 96.5 | 189 | 185 | 221 | 185 | 174 | 181 | 185 | 203 | 168 | 201 | 155 | 155 | 207 | 173 | 231 | 189 |
| CC(C)(C)OC(=O)Nc1ccc(-c2cc(C(=O)NCCCCCCC(=O)NO)no2)cc1 [BML-281] | 55.1 | 38.1 | 91.7 | 97.6 | 64 | 84 | 33.3 | 76 | 71.8 | 39 | 85.3 | 104 | 50 | 85.5 | 56.6 | 111 | 146 | 83.1 | 92 | 94.4 | 49 | 55.5 | 104 | 65.9 | 54.5 | 87.7 | 63.9 | 212 | 61.4 |
| CC(=O)c1ccc2c(c1)c1cc(C(C)=O)ccc1n2CCNC(C)C [CBL-0137] | 94.2 | 101 | 99.2 | 106 | 83.4 | 104 | 91.8 | 96.8 | 92.3 | 96.5 | 98 | 113 | 23.8 | 135 | 199 | 137 | 218 | 155 | 134 | 148 | 154 | 122 | 156 | 109 | 123 | 223 | 129 | 277 | 57.3 |

Reference: the supplement of paper PMC8253809
